{"source": "patent US10604794B2", "about": "“Method to measure the shortest telomeres” (The Board of Regents of The University of Texas System, priority 2017, dated 2020)", "key": {"H2087 cells [1]": {"tested_on": "H2087 cells", "test": "Interphase Q-FISH telomere length in H2087 cells under long-term imetelstat treatment", "assay_type": "cell-based", "conditions": "1 μM imetelstat, 18 weeks treatment compared to 0 weeks and 5 weeks after drug removal", "method": "(§1) FIGS. 2A-2C. Measuring TL in long-term telomerase inhibition with imetelstat (1 μM) treatment and after a removal of drug in H2087 cells. (2A) Isolated DNA from H2087 cells with 1 μM imetelstat treatment for 0, 10 and 18 weeks, and post released from 18 weeks for 1, 2, 3, 4, and 5 weeks was digested with the same REs for TeSLA (BfaI/CviAII/MseI/NdeI) and then separated with 0.7% agarose gel for TRF analysis. (2B) Interphase Q-FISH; cells from H2087 with 0, and 18 weeks 1 μM imetelstat treatment, and 5 weeks after drug removal were used to measure TL by Q-FISH. The results were quantified using TFL-Telo software (n: numbers of nuclei were quantified for each time point as indicated above). (2C) Results of TeSLA using DNA as indicated. Four TeSLA reactions (30 pg of each reaction) were performed for each DNA sample.\n(§2) To further examine the utility of TeSLA in studying telomere dynamics, the inventors evaluated TL dynamics in a telomerase positive non-small cell lung cancer (NSCLC) cell line (H2087). These cells were subjected to long-term telomerase inhibition treatment and then released to observe the dynamic of telomere re-elongation. The results were compared using TeSLA, TRF and telomere Q-FISH. […] In contrast, TeSLA is able to detect TL in both imetelstat treated cells and cells post released from drug in a much more quantitative manner (FIG. 2C). […]"}, "NSCLC cell lines": {"tested_on": "NSCLC cell lines", "conditions": "long-term treatment, multiple NSCLC cell lines; cited from earlier work"}, "telomerase": {"tested_on": "telomerase", "conditions": "binds to the active site of telomerase RNA; cited from earlier work"}, "H2087 cells [2]": {"tested_on": "H2087 cells", "test": "TRF analysis of telomere length in H2087 cells under long-term imetelstat treatment", "assay_type": "cell-based", "conditions": "1 μM imetelstat 3 times per week, 10 and 18 weeks treatment", "method": "as §1, §2"}}, "data": [{"substance": "imetelstat", "values": [{"measurement": "telomere signals by Q-FISH", "setting": "H2087 cells [1]", "result": "only a few telomere signals with relatively low intensity were detected"}, {"measurement": "average TL change", "setting": "NSCLC cell lines", "result": "shorten average TL"}, {"measurement": "telomerase activity", "setting": "telomerase", "result": "robustly inhibits telomerase activity"}, {"measurement": "average TL change by TRF analysis", "setting": "H2087 cells [2]", "result": "average TL shortening"}]}]}
